Assay results: ChEMBL document CHEMBL3046559, “Sterile oat (Avena sterilis L.) cross-resistance profile to ACCase-inhibiting herbicides in Greece” (2012)

Tests used:
Type in all cases: functional
Avena sterilis [1] = test: Herbicidal activity against Avena sterilis accession P02 assessed as weed survival at 32 times field recommended herbicide dose
Avena sterilis [2] = test: Herbicidal activity against Avena sterilis accession P22 assessed as weed survival at 1 times field recommended herbicide dose
Avena sterilis [3] = test: Herbicidal activity against Avena sterilis accession P09 assessed as induction of weed mortality
Avena sterilis [4] = test: Herbicidal activity against Avena sterilis accession P07 assessed as weed survival at 16 times field recommended herbicide dose
Avena sterilis [5] = test: Herbicidal activity against Avena sterilis accession P11 assessed as weed survival at 8 times field recommended herbicide dose
Avena sterilis [6] = test: Herbicidal activity against Avena sterilis accession P14 assessed as weed survival at 32 times field recommended herbicide dose
Avena sterilis [7] = test: Herbicidal activity against Avena sterilis accession P22 assessed as weed survival at 8 times field recommended herbicide dose
Avena sterilis [8] = test: Herbicidal activity against Avena sterilis accession P06S assessed as weed survival at 1/32 times field recommended herbicide dose
Avena sterilis [9] = test: Herbicidal activity against Avena sterilis accession P17 assessed as weed survival at 32 times field recommended herbicide dose
Avena sterilis [10] = test: Herbicidal activity against Avena sterilis accession P18 assessed as weed survival at 32 times field recommended herbicide dose
Avena sterilis [11] = test: Herbicidal activity against Avena sterilis accession P03 assessed as weed survival at 16 times field recommended herbicide dose
Avena sterilis [12] = test: Herbicidal activity against Avena sterilis accession P15 assessed as weed survival at 32 times field recommended herbicide dose
Avena sterilis [13] = test: Herbicidal activity against Avena sterilis accession P05 assessed as weed survival at 16 times field recommended herbicide dose
Avena sterilis [14] = test: Herbicidal activity against Avena sterilis accession P10S assessed as weed survival at 1/4 times field recommended herbicide dose
Avena sterilis [15] = test: Herbicidal activity against Avena sterilis accession P17 assessed as weed survival at 1 times field recommended herbicide dose
Avena sterilis [16] = test: Herbicidal activity against Avena sterilis accession P01 assessed as weed survival at 32 times field recommended herbicide dose
Avena sterilis [17] = test: Herbicidal activity against Avena sterilis accession P11 assessed as weed survival at 32 times field recommended herbicide dose
Avena sterilis [18] = test: Herbicidal activity against Avena sterilis accession P07 assessed as weed survival at 4 times field recommended herbicide dose
Avena sterilis [19] = test: Herbicidal activity against Avena sterilis accession P04 assessed as weed survival at 16 times field recommended herbicide dose
Avena sterilis [20] = test: Herbicidal activity against Avena sterilis accession P11 assessed as weed survival at 4 times field recommended herbicide dose
Avena sterilis [21] = test: Herbicidal activity against Avena sterilis accession P10S assessed as weed survival at 1 times field recommended herbicide dose
Avena sterilis [22] = test: Herbicidal activity against Avena sterilis accession P03 assessed as weed survival at 4 times field recommended herbicide dose
Avena sterilis [23] = test: Herbicidal activity against Avena sterilis accession P08 assessed as weed survival at 8 times field recommended herbicide dose
Avena sterilis [24] = test: Herbicidal activity against Avena sterilis accession P17 assessed as weed survival at 4 times field recommended herbicide dose
Avena sterilis [25] = test: Herbicidal activity against Avena sterilis accession P06S assessed as induction of weed mortality
Avena sterilis [26] = test: Herbicidal activity against Avena sterilis accession P12 assessed as induction of weed mortality
Avena sterilis [27] = test: Herbicidal activity against Avena sterilis accession P03 assessed as weed survival at 32 times field recommended herbicide dose
Avena sterilis [28] = test: Herbicidal activity against Avena sterilis accession P15 assessed as weed survival at 16 times field recommended herbicide dose
Avena sterilis [29] = test: Herbicidal activity against Avena sterilis accession P15 assessed as induction of weed mortality
Avena sterilis [30] = test: Herbicidal activity against Avena sterilis accession P18 assessed as induction of weed mortality
Avena sterilis [31] = test: Herbicidal activity against Avena sterilis accession P20 assessed as weed survival at 8 times field recommended herbicide dose
Avena sterilis [32] = test: Herbicidal activity against Avena sterilis accession P13S assessed as induction of weed mortality
Avena sterilis [33] = test: Herbicidal activity against Avena sterilis accession P16 assessed as weed survival at 8 times field recommended herbicide dose
Avena sterilis [34] = test: Herbicidal activity against Avena sterilis accession P19S assessed as weed survival at 1/32 times field recommended herbicide dose
Avena sterilis [35] = test: Herbicidal activity against Avena sterilis accession P01 assessed as weed survival at 1 times field recommended herbicide dose
Avena sterilis [36] = test: Herbicidal activity against Avena sterilis accession P12 assessed as weed survival at 32 times field recommended herbicide dose
Avena sterilis [37] = test: Herbicidal activity against Avena sterilis accession P19S assessed as weed survival at 1/8 times field recommended herbicide dose
Avena sterilis [38] = test: Herbicidal activity against Avena sterilis accession P01 assessed as induction of weed mortality
Avena sterilis [39] = test: Herbicidal activity against Avena sterilis accession P13S assessed as weed survival at 1/16 times field recommended herbicide dose
Avena sterilis [40] = test: Herbicidal activity against Avena sterilis accession P05 assessed as weed survival at 8 times field recommended herbicide dose
Avena sterilis [41] = test: Herbicidal activity against Avena sterilis accession P05 assessed as weed survival at 1 times field recommended herbicide dose
Avena sterilis [42] = test: Herbicidal activity against Avena sterilis accession P20 assessed as weed survival at 32 times field recommended herbicide dose
Avena sterilis [43] = test: Herbicidal activity against Avena sterilis accession P22 assessed as weed survival at 16 times field recommended herbicide dose
Avena sterilis [44] = test: Herbicidal activity against Avena sterilis accession P22 assessed as induction of weed mortality
Avena sterilis [45] = test: Herbicidal activity against Avena sterilis accession P12 assessed as weed survival at 4 times field recommended herbicide dose
Avena sterilis [46] = test: Herbicidal activity against Avena sterilis accession P18 assessed as weed survival at 1 times field recommended herbicide dose
Avena sterilis [47] = test: Herbicidal activity against Avena sterilis accession P01 assessed as weed survival at 4 times field recommended herbicide dose
Avena sterilis [48] = test: Herbicidal activity against Avena sterilis accession P18 assessed as weed survival at 4 times field recommended herbicide dose
Avena sterilis [49] = test: Herbicidal activity against Avena sterilis accession P18 assessed as weed survival at 8 times field recommended herbicide dose
Avena sterilis [50] = test: Herbicidal activity against Avena sterilis accession P10S assessed as weed survival at 1/32 times field recommended herbicide dose
Avena sterilis [51] = test: Herbicidal activity against Avena sterilis accession P16 assessed as induction of weed mortality
Avena sterilis [52] = test: Herbicidal activity against Avena sterilis accession P07 assessed as weed survival at 1 times field recommended herbicide dose
Avena sterilis [53] = test: Herbicidal activity against Avena sterilis accession P12 assessed as weed survival at 16 times field recommended herbicide dose
Avena sterilis [54] = test: Herbicidal activity against Avena sterilis accession P15 assessed as weed survival at 8 times field recommended herbicide dose
Avena sterilis [55] = test: Herbicidal activity against Avena sterilis accession P13S assessed as weed survival at 1/32 times field recommended herbicide dose
Avena sterilis [56] = test: Herbicidal activity against Avena sterilis accession P20 assessed as weed survival at 4 times field recommended herbicide dose
Avena sterilis [57] = test: Herbicidal activity against Avena sterilis accession P12 assessed as weed survival at 1 times field recommended herbicide dose
Avena sterilis [58] = test: Herbicidal activity against Avena sterilis accession P12 assessed as weed survival at 8 times field recommended herbicide dose

## C#CCOC(=O)[C@@H](C)Oc1ccc(Oc2ncc(Cl)cc2F)cc1 [CLODINAFOP PROPARGYL]
Avena sterilis [1]
  Survival: 87%
Avena sterilis [2]
  Survival: 90%
Avena sterilis [3]
  GR50: 46 gAi/ha
Avena sterilis [4]
  Survival: 0%
Avena sterilis [5]
  Survival: 100%
Avena sterilis [6]
  Survival: 43%
Avena sterilis [7]
  Survival: 20%
Avena sterilis [8]
  Survival: 100%
Avena sterilis [9]
  Survival: 20%
Avena sterilis [10]
  Survival: 20%
Avena sterilis [11]
  Survival: 87%
Avena sterilis [12]
  Survival: 93%
Avena sterilis [13]
  Survival: 13%
Avena sterilis [14]
  Survival: 40%
Avena sterilis [15]
  Survival: 97%
Avena sterilis [16]
  Survival: 40%
Avena sterilis [17]
  Survival: 93%
Avena sterilis [18]
  Survival: 0%
Avena sterilis [19]
  Survival: 73%
Avena sterilis [20]
  Survival: 97%
Avena sterilis [21]
  Survival: 0%
Avena sterilis [22]
  Survival: 100%
Avena sterilis [23]
  Survival: 93%
Avena sterilis [24]
  Survival: 67%
Avena sterilis [25]
  GR50: 9 gAi/ha
Avena sterilis [26]
  GR50: >1312 gAi/ha
Avena sterilis [27]
  Survival: 73%
Avena sterilis [28]
  Survival: 97%
Avena sterilis [29]
  GR50: >1312 gAi/ha
Avena sterilis [30]
  GR50: 520 gAi/ha
Avena sterilis [31]
  Survival: 60%
Avena sterilis [32]
  GR50: 5 gAi/ha
Avena sterilis [33]
  Survival: 20%
Avena sterilis [34]
  Survival: 100%
Avena sterilis [35]
  Survival: 97%
Avena sterilis [36]
  Survival: 83%
Avena sterilis [37]
  Survival: 97%
Avena sterilis [38]
  GR50: 1053 gAi/ha
Avena sterilis [39]
  Survival: 70%
Avena sterilis [40]
  Survival: 40%
Avena sterilis [41]
  Survival: 90%
Avena sterilis [42]
  Survival: 27%
Avena sterilis [43]
  Survival: 0%
Avena sterilis [44]
  GR50: 122 gAi/ha
Avena sterilis [45]
  Survival: 97%
Avena sterilis [46]
  Survival: 80%
Avena sterilis [47]
  Survival: 87%
Avena sterilis [48]
  Survival: 80%
Avena sterilis [49]
  Survival: 73%
Avena sterilis [50]
  Survival: 83%
Avena sterilis [51]
  GR50: 169 gAi/ha
Avena sterilis [52]
  Survival: 13%
Avena sterilis [53]
  Survival: 83%
Avena sterilis [54]
  Survival: 100%
Avena sterilis [55]
  Survival: 80%
Avena sterilis [56]
  Survival: 73%
Avena sterilis [57]
  Survival: 100%
Avena sterilis [58]
  Survival: 100%
